Measured values published in patent US20140357512A1, “HISTONE DEACETYLASE (HDAC) BIOMARKERS IN MULTIPLE MYELOMA” (priority 2013, published 2014).

Tested on: human myeloma cell line MM.1S
Experiment: CNP analysis: acetylated peptides in cytoplasm (C), soluble nuclear extract (N), insoluble nuclear pellet (P) of Compound B treated cells
Type: cell-based
Settings: for change in quantity of acetylated peptide, C / fold change in quantity of acetylated peptide, C: cytoplasm (C), normalized to total (C+N+P); for C: change in quantity of acetylated peptide normalized to total (C+N+P) / C: fold change in quantity of acetylated peptide normalized to total (C+N+P): cytoplasm fraction; for P: change in quantity of acetylated peptide normalized to total (C+N+P) / P: fold change in quantity of acetylated peptide normalized to total (C+N+P): insoluble nuclear pellet; for N: change in quantity of acetylated peptide normalized to total (C+N+P) / N: fold change in quantity of acetylated peptide normalized to total (C+N+P): soluble nuclear extract
Description: This example describes the CNP analysis that was performed on Compound B treated cells from Example 1.
The SILAC method was performed as described in Example 1.
The harvested “heavy” and “light” labeled cells were initially lysed with 2×NETN buffer (200 mM NaCl, 100 mM Tris-Cl, 2 mM EDTA, 1.0% NP-40, pH 7.2) on ice for 15 min, respectively. The supernatants were saved after 20,000×g centrifugation for 10 minutes at 4° C. After measurement of the protein concentration in “heavy” or “light” labeled supernatants, equal amounts of crude proteins in supernatant were mixed, and the crude proteins were precipitated by adding trifluoroacetic acid (TFA) with 15% final concentration (v/v) (this was called the cytosolic fraction). After washing twice with −20° C. acetone, the proteins pellets were dissolved in 100 mM NH4HCO3 (pH 8.0) for trypsin digestion.
The remaining cell pellets were further lysed with 1×ETN buffer (100 mM NaCl, 50 mM Tris-Cl, 1 mM EDTA, pH 7.2) supplemented with 0.5% Triton X-100 on ice for 15 min, respectively. The resulting lysates were clarified by 20,000×g centrifugation for 10 minutes, and the supernatant was saved as nuclear extracts fractions. After measurement of the protein concentration in “heavy” or “light” labeled supernatant, equal amount of crude proteins in supernatant were mixed, and the crude proteins were precipitated by adding trifluoroacetic acid (TFA) with 15% final concentration (v/v) (this was called the nuclear extracts fraction). After washing twice with −20° C. acetone, the proteins pellets were dissolved in 100 mM NH4HCO3 (pH 8.0) for trypsin digestion.
The final remaining cell pellets were dissolved in 8 M urea to extract the chromatin-binding proteins. After measurement of protein concentration, equal amount of chromatin-binding proteins in urea solution were mixed, and the proteins were precipitated by adding trifluoroacetic acid (TFA) with 15% final concentration (v/v) (this was called the nuclear pellet fraction). After washing twice with −20° C. acetone, the proteins pellets were dissolved in 100 mM NH4HCO3 for trypsin digestion.
After trypsin digestion for the above three fractions, the Kac affinity enrichment followed by MS analysis and data inquiry were separately performed. The combined Kac data formed the total Kac profiling data in the pair of Compound B vs DMSO.
Compound B treated cell lysate was fractionated into three subcellular fractions—cytoplasm (C), soluble nuclear extract (N), and insoluble nuclear pellet (P), as described above. Any peptides identified as HDAC6 specific in Example 1 with this subcellular localization information was extremely helpful for understanding their functions inside cells.
The third, fourth, and fifth columns of Table 2 show data for Compound B. A “+” indicates a 1.3 fold change or greater in the quantity of peptide when normalized to the total (C+N+P=total) for each peptide for each drug treated group of cells. A “−” indicates a 1.29 fold change or less in the quantity of peptide when normalized to the total (C+N+P=total) for each peptide for each drug treated group of cells. “None” indicates unknown.
The sixth, seventh, and eighth columns of Table 2 show data for Compound B. The numbers in these columns represent the fold change in the quantity of peptide when normalized to the total (C+N+P=total) for each peptide for each drug treated group of cells. The numbers are in a log 2 scale so 1 represents a 2× change, 0 represents no change, and None represents unknown.

[1] = peptide AVLIDK(ac)DQSPK (SEQ ID NO: 577), gene HIBCH
[2] = peptide CSK(ac)LPSSTK(ac)SGWPR (SEQ ID NO: 711), gene PHF15
[3] = peptide DFGSFDK(ac)FK (SEQ ID NO: 709), gene SOD2
[4] = peptide INKALDK(ac)TK (SEQ ID NO: 802), gene MYH9
[5] = peptide K(ac)AINK(ac)AQK (SEQ ID NO: 793), gene HIST1H2BM
[6] = peptide KGEDFVK(ac)TLK (SEQ ID NO: 750), gene MDH2
[7] = peptide LENDK(ac)SFR (SEQ ID NO: 678), gene ECI1
[8] = peptide SELTGK(ac)FEK (SEQ ID NO: 778), gene ANXA5

O=C(NO)c1cnc(NC2(c3cccc(F)c3)CCCCC2)nc1 [Compound B, 2-((1-(3-fluorophenyl)cyclohexyl)amino)-N-hydroxypyrimidine-5-carboxamide]
change in quantity of acetylated peptide, C [1]: − (A “−” indicates a 1.29 fold change or less in the quantity of peptide when normalized to the total (C+N+P=total)) | fold change in quantity of acetylated peptide, C [1]: 0.00 log 2 | change in quantity of acetylated peptide, C (peptide FYK(ac)DVLEVGELAK (SEQ ID NO: 596), gene NAA50): − (A “−” indicates a 1.29 fold change or less in the quantity of peptide when normalized to the total (C+N+P=total)) | fold change in quantity of acetylated peptide, C (peptide FYK(ac)[…] (SEQ ID NO: 596), gene NAA50): 0.12 log 2 | fold change in quantity of acetylated peptide, C (peptide NCSSFLIK(ac)R (SEQ ID NO: 558), gene RPL28): 0.05 log 2 | change in quantity of acetylated peptide, C (peptide VTCIDPNPNFEK(ac)FLIK (SEQ ID NO: 671), gene METTL7A): + (A “+” indicates a 1.3 fold change or greater in the quantity of peptide when normalized to the total (C+N+P=total)) | fold change in quantity of acetylated peptide, C (peptide […](ac)FLIK (SEQ ID NO: 671), gene METTL7A): 0.44 log 2 | fold change in quantity of acetylated peptide, C (peptide […](ac)QNK (SEQ ID NO: 650), gene DLD): 0.18 log 2 | C: change in quantity of acetylated peptide normalized to total (C+N+P) [2]: − (A “−” indicates a 1.29 fold change or less in the quantity of peptide when normalized to the total (C+N+P=total)) | C: fold change in quantity of acetylated peptide normalized to total (C+N+P) [2]: 0.11 log 2 scale | P: change in quantity of acetylated peptide normalized to total (C+N+P) [2]: + (A “+” indicates a 1.3 fold change or greater in the quantity of peptide when normalized to the total (C+N+P=total)) | P: fold change in quantity of acetylated peptide normalized to total (C+N+P) [2]: 0.43 log 2 scale | N: change in quantity of acetylated peptide normalized to total (C+N+P) [2]: − (A “−” indicates a 1.29 fold change or less in the quantity of peptide when normalized to the total (C+N+P=total)) | N: fold change in quantity of acetylated peptide normalized to total (C+N+P) [2]: 0.04 log 2 scale | C: change in quantity of acetylated peptide normalized to total (C+N+P) [3]: − (A “−” indicates a 1.29 fold change or less in the quantity of peptide when normalized to the total (C+N+P=total)) | C: fold change in quantity of acetylated peptide normalized to total (C+N+P) [3]: −0.28 log 2 scale | P: change in quantity of acetylated peptide normalized to total (C+N+P) [3]: − (A “−” indicates a 1.29 fold change or less in the quantity of peptide when normalized to the total (C+N+P=total)) | N: change in quantity of acetylated peptide normalized to total (C+N+P) [3]: + (A “+” indicates a 1.3 fold change or greater in the quantity of peptide when normalized to the total (C+N+P=total)) | N: fold change in quantity of acetylated peptide normalized to total (C+N+P) [3]: −0.48 log 2 scale | C: change in quantity of acetylated peptide normalized to total (C+N+P) [4]: − (A “−” indicates a 1.29 fold change or less in the quantity of peptide when normalized to the total (C+N+P=total)) | P: change in quantity of acetylated peptide normalized to total (C+N+P) [4]: − (A “−” indicates a 1.29 fold change or less in the quantity of peptide when normalized to the total (C+N+P=total)) | N: change in quantity of acetylated peptide normalized to total (C+N+P) [4]: + (A “+” indicates a 1.3 fold change or greater in the quantity of peptide when normalized to the total (C+N+P=total)) | N: fold change in quantity of acetylated peptide normalized to total (C+N+P) [4]: 4.75 log 2 scale | C: change in quantity of acetylated peptide normalized to total (C+N+P) [5]: − (A “−” indicates a 1.29 fold change or less in the quantity of peptide when normalized to the total (C+N+P=total)) | P: change in quantity of acetylated peptide normalized to total (C+N+P) [5]: − (A “−” indicates a 1.29 fold change or less in the quantity of peptide when normalized to the total (C+N+P=total)) | P: fold change in quantity of acetylated peptide normalized to total (C+N+P) [5]: 0.27 log 2 scale | N: change in quantity of acetylated peptide normalized to total (C+N+P) [5]: + (A “+” indicates a 1.3 fold change or greater in the quantity of peptide when normalized to the total (C+N+P=total)) | N: fold change in quantity of acetylated peptide normalized to total (C+N+P) [5]: −0.97 log 2 scale | C: change in quantity of acetylated peptide normalized to total (C+N+P) [6]: − (A “−” indicates a 1.29 fold change or less in the quantity of peptide when normalized to the total (C+N+P=total)) | C: fold change in quantity of acetylated peptide normalized to total (C+N+P) [6]: 0.15 log 2 scale | P: change in quantity of acetylated peptide normalized to total (C+N+P) [6]: − (A “−” indicates a 1.29 fold change or less in the quantity of peptide when normalized to the total (C+N+P=total)) | N: change in quantity of acetylated peptide normalized to total (C+N+P) [6]: + (A “+” indicates a 1.3 fold change or greater in the quantity of peptide when normalized to the total (C+N+P=total)) | N: fold change in quantity of acetylated peptide normalized to total (C+N+P) [6]: 0.49 log 2 scale | C: change in quantity of acetylated peptide normalized to total (C+N+P) [7]: − (A “−” indicates a 1.29 fold change or less in the quantity of peptide when normalized to the total (C+N+P=total)) | C: fold change in quantity of acetylated peptide normalized to total (C+N+P) [7]: 0.12 log 2 scale | P: change in quantity of acetylated peptide normalized to total (C+N+P) [7]: − (A “−” indicates a 1.29 fold change or less in the quantity of peptide when normalized to the total (C+N+P=total)) | N: change in quantity of acetylated peptide normalized to total (C+N+P) [7]: + (A “+” indicates a 1.3 fold change or greater in the quantity of peptide when normalized to the total (C+N+P=total)) | N: fold change in quantity of acetylated peptide normalized to total (C+N+P) [7]: −0.38 log 2 scale | C: change in quantity of acetylated peptide normalized to total (C+N+P) [8]: − (A “−” indicates a 1.29 fold change or less in the quantity of peptide when normalized to the total (C+N+P=total)) | C: fold change in quantity of acetylated peptide normalized to total (C+N+P) [8]: 0.31 log 2 scale | P: change in quantity of acetylated peptide normalized to total (C+N+P) [8]: − (A “−” indicates a 1.29 fold change or less in the quantity of peptide when normalized to the total (C+N+P=total)) | N: change in quantity of acetylated peptide normalized to total (C+N+P) [8]: + (A “+” indicates a 1.3 fold change or greater in the quantity of peptide when normalized to the total (C+N+P=total)) | N: fold change in quantity of acetylated peptide normalized to total (C+N+P) [8]: 0.40 log 2 scale
